Experiments:
[1] = rat, in vivo; cited from earlier work
[2] = test system: APP processing (sAPPs, F1-APP, pAPPThr668, CTFs) in brain of TgCRND8 mice; assay: Western blot of APP metabolic products in brain fractions of TgCRND8 mice; type: in vivo; conditions: oral, 25 mg/kg per day
Source text: All animal handling experiments were approved by the Hong Kong Baptist University Committee on the Use of Human and Animal Subjects in Teaching and Research (HASC, approval #: 12-13/0030). TgCRND8 mice expressing human APP with Swedish (K670N/M671L) and Indiana (V717F) mutations were used to evaluate the effect of baicalein on Aβ. Heterozygous TgCRND8 mice on a C57BL/6J background were used to breed a colony of experimental animals. The TgCRND8 mouse is an early onset model of AD with visible Aβ deposits in the brains of the animals starting from 3 months of age as described in Chishti M A, Yang D S, Janus C, Phinney A L, Home P, Pearson J, Strome R, Zuker N, Loukides J, French J, Turner S, Lozza G, Grilli M, Kunicki S, Morissette C, Paquette J, Gervais F, Bergeron C, Fraser P E, Carlson G A, George-Hyslop P S, Westaway D. (2001) Early-onset amyloid deposition and cognitive deficits in transgenic mice expressing a double mutant form of amyloid precursor protein 695. J Biol Chem 276: 21562-21570. The animals are housed in a controlled environment under a 12/12 hours light/dark cycle. They are allowed free access to food and water. The oral administration of baicalein (25 mg/kg/d) is commenced at 2 months of age and ended at 5 months before being killed. A single dose (25 mg/kg/d) of baicalein is tested in animal study as no difference in baicalein levels in the brain between doses of 25 and 50 mg/kg/d is found in our pilot study. Control mice orally gavaged with tap water only for the same administration period. At the conclusion of the treatment period, mice were deeply anesthetized by chloral hydrate and perfused with phosphate buffered saline (PBS). The brains were then dissected and processed for Aβ immunostaining
To detect differences in the level of APP metabolic products among treatment groups, the levels of Aβ, F1-APP, pAPPThr668, CTFs, sAPPα and sAPPβ-sw are measured after a 3-step sequential extraction using Tris buffered saline (TBS) (pH 7.4), 1% Triton X-100/TBS (TBSX) and formic acid (FA) methods as described in Youmans K L, Leung S, Zhang J, Maus E, Baysac K, Bu G, Vassar R, Yu C, LaDu M J. (2011) Amyloid-β42 alters apolipoprotein E solubility in brains of mice with five familial AD mutations. J Neurosci Methods 196: 51-59. All extraction buffers also contained protease and phosphatase inhibitor cocktail (Roche Diagnostics, Basel, Switzerland). Snap frozen tissue is homogenized in 15 volumes (w/v) of TBS homogenization buffer and centrifuged at 100,000×g for 1 h at 4° C. using a Type 70 Ti rotor in an Optima™ L-80XP Ultracentrifuge (Beckman Coulter, Fla., USA). The TBS-soluble fraction is aliquoted, frozen in liquid nitrogen and stored at −80° C. The pellets are resuspended in 15 volumes of TBSX and kept on ice for 30 minutes, followed by a second centrifugation at 100,000×g for 1 hour at 4° C. The TBSX soluble fraction is aliquoted, frozen and stored as for the TBS fraction. The TBSX-insoluble pellet is resuspended in 2 mL of 70% FA and centrifuged at 100,000×g at 4° C. for 1 hour. The FA extracts are neutralized by the addition of 20 volumes of 1 M Tris pH 11, aliquoted and stored at −80° C. Total protein content in TBS- and TBSX-extracts is determined via BCA assay. Total protein in FA-extracts is determined by Bradford Protein Microassay (Bio-Rad, CA, USA). […]

[3] = test system: intracellular Aβ1-40 and Aβ1-42 in N2a-SwedAPP cells; assay: Sandwich ELISA of intracellular Aβ in N2a-SwedAPP cells; type: cell-based, murine; parameters: key to Aβs (overall influence): ↓ decreased; ↑ increased; ? unchanged
Method: N2a-SwedAPP cells were seeded at a density of 4×10^5/mL in DMEM medium in a 6-well plate and cultured for 1 day. After transfer, cells were treated with different doses of RC, CP, FG and RS for 48 hours, then the extracellular media were collected for detection of sAPPα and sAPPβ-sw, and cells were harvested to quantify F1-APP and β-actin by Western blot analysis, as described previously by Durairajan et al. For intracellular APP, APP-CTFs and Aβ preparation, cells were washed with ice-cold PBS twice and solubilized in ice-cold RIPA buffer with protease inhibitor cocktail added. Lysates were collected and centrifuged at 16,000×g for 15 minutes at 4° C. The resulting supernatants were collected, and their protein concentrations were determined with bicinchoninic acid (BCA) protein assay reagent (Thermo Scientific, IL, USA). […] The conditioned media were standardized to total cell lysate protein.
The levels of intracellular Aβ1-40 and Aβ1-42 are quantified by using a sandwich ELISA as previously described by Durairajan et al., 2011 with minor modification. Equal amounts of cell or brain lysates are used for Aβ quantification by sandwich ELISA. The monoclonal antibody 6E10 is used as the capture antibody by adding to ELISA plates (0.2 μg diluted in 0.1 M Na2CO3 (pH 9.6) per well) and incubated overnight at 4° C. The plates are washed with PBS (0.05% Tween 20) and blocked with 4% BlockAce (Serotec, Raleigh, N.C., USA) for 2 hours at room temperature. Equilibrated protein lysates from each treatment (a 100 μL volume is adjusted in all treatment groups by using PBS) are applied in duplicate and incubated at room temperature for 2 hours with constant rotation at 30 rpm. Biotinylated monoclonal anti-Aβ40 5C3 (50 ng per well) and biotinylated monoclonal 8G7 (50 ng per well) antibodies are used for detection of Aβ1-40 and Aβ1-42, respectively, and are diluted in 1% BlockAce and incubated for 2 hours at room temperature. Plates are thoroughly washed with PBS (0.05% Tween 20), and streptavidin conjugated HRP is added for 1 hour at room temperature. Finally the plates are washed four times with PBST before adding the substrate TMB for 30 minutes. Absorbance at 450 nm is measured in duplicate wells after addition of 2 M H2SO4. All ELISA experimental data are from three different days. Synthetic Aβ40 and Aβ42 peptides are used for construction of calibration curves, and Aβ is measured in lysates.

## O=c1cc(-c2ccccc2)oc2cc(O)c(O)c(O)c12 [baicalein]
[1]
  brain bioavailability of baicalein (greater than berberine): 1 to 10 µM
[2]; TBS fraction
  increase in sAPPα signal intensity in brain: 44%
  increase in sAPPβ-sw signal intensity in brain: 35%
[2]; TBSX fraction
  increase in level of CTFs in brain: 40%
  increase in level of F1-APP in brain: 30%
  increase in level of pAPP in brain: 41%
[3]; 12.5 μM, 48 h
  augmentation of intracellular Aβ1-40, fold of basal level: 1.23 fold
  augmentation of intracellular Aβ1-42, fold of basal level: 1.38 fold
[3]; N2a-SwedAPP cells
  Aβs (overall influence): ↑

Reference: patent US9375457B2, “Composition comprising Rhizoma coptidis, Cortex phellodendri and Fructus gardeniae and for treating neurodegenerative diseases” (Hong Kong Baptist University, priority 2013, dated 2016)
